Here are results for one molecule from patent EP0231622B1, “Inhibition of the 5-lipoxygenase pathway” (priority 1985, dated 1987).

The target in assay [1] is T1, 5-Lipoxygenase (Rattus norvegicus, UniProt P12527).
T1 construct: The activities of these enzymes in extracts of RBL-1 cells were assayed; host or cells: RBL-1 cells, disrupted by nitrogen cavitation; 10,000 x g or 100,000 x g supernatant
T1 sequence (P12527 1-673): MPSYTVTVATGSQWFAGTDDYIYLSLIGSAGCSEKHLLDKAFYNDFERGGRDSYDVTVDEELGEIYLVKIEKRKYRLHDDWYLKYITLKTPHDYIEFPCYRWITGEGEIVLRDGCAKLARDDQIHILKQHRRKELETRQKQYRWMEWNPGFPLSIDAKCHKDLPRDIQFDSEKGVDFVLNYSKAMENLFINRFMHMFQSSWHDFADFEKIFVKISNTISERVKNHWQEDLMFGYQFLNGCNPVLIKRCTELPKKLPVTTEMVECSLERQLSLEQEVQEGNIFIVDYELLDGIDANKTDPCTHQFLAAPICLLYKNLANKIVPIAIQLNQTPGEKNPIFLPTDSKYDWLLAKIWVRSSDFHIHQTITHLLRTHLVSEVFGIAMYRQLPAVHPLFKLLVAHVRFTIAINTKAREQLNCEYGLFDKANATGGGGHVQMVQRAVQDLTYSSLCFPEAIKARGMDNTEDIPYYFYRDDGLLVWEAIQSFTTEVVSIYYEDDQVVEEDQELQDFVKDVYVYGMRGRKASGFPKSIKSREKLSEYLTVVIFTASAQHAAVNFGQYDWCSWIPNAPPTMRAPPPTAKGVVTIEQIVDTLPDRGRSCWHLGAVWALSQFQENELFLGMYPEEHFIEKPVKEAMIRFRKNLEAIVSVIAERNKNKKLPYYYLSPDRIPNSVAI
The experiment in a line: 5-HETE production by RBL-1 high speed supernatant. It is filed as biochemical. On the procedure:
(§1) For in vitro experiments, compounds were dissolved at appropriate concentrations in ethanol or DMSO (dimethylsulfoxide) (final concentration <1.0%) and then diluted to final concentrations using the buffers indicated in the text.
The activities of these enzymes in extracts of RBL-1 cells were assayed using the method of Jakschik and Lee, Nature, 287, 51-52 (1980). RBL-1 cells were obtained from the American Type Culture Collection (#CRL 1378) and were grown at 37°C (5% CO₂ in air) in spinner culture in MEM supplemented with 10% heat inactivated fetal calf serum. Harvested cells were washed with 50 mM sodium phosphate buffer, pH 7.0, containing 1 mM EDTA and 0.1% gelatin, resuspended in fresh buffer (5 x 10⁷ cells/ml) and disrupted by nitrogen cavitation using the Parr bomb at 750 psi for 10 min. The broken cell extract was then centrifuged at 10,000 x g for 20 minutes and the supernatant centrifuged at 100,000 x g for 60 minutes. Aliquots (0.25 mls) of the supernatant were preincubated with or without drugs for 10 min, after which 10 ul CaCl₂ (50 mM) was added and the reaction was initiated with 2.5 ul of 2.5 mM arachidonic acid-1-¹⁴C (final concentration was […]; specific activity 20,000 dpm/nmole). After incubation for 3 min at 37°C, the reaction was terminated by addition of 2 volumes (0.5 ml) ice cold acetone and the sample was allowed to deproteinize on ice for 10 min prior to centrifugation at 1,000 x g for 10 min. The deproteinized supernatant was adjusted to pH 3.5 with 2N formic acid and extracted with 2 volumes of ice cold ethyl acetate. The extracted samples were dried under argon, redissolved in ethyl acetate and applied to Whatman LK5D thin layer chromatography (TLC) plates which were developed using the A-9 solvent system [organic phase of ethyl acetate: 2,2,5-trimethylpentane:acetic acid: water (110:50:20:10)] described by Hamberg and Samuelsson, J. Biol. Chem., 241, 257-263 (1966). Arachidonic acid, 5-HETE, di-HETE and PGD₂ were quantified with a Berthold LB 2832 autoscanner.
The 5-lipoxygenase and LTA₄ synthetase activities were further studied under the following conditions. An additional centrifugation of the RBL-1 supernatant was run at 100,000 x g for 60 min, to remove the particulate cyclooxygenase activity. Sample incubation was done under conditions similar to those described above, i.e., 2 mM CaCl₂ and 25 uM arachidonic acid-1-¹⁴C, however, with an incubation time of 5 min at […]. Under these conditions, only the 5-lipoxygenase pathway metabolites were detectable. The 5-HETE and di-HETEs were formed at a linear rate, and […] amounts of the arachidonic acid-1-¹⁴C substrate were utilized.

Assay [2] deals with Production of PGE₂ by Mouse Peritoneal Exudate Cells. Briefly: PGE2 production by peritoneal macrophages. It is filed as cell-based. As for the experimental part: as §1
Mice were injected intraperitoneally with 350 »g Corynebacterium parvum and the peritoneal exudate cell population was harvested 12-14 days later by peritoneal lavage with cold phosphate-buffered saline, and resuspended in Eagles minimal essential medium supplemented with 5% fetal calf serum. […] Test compounds were added (100 ul) to bring the final volume to 1.0 ml. Lipopolysaccharide (5 »g/ml) was then added to stimulate PGE₂ synthesis. After incubation at 37°C for 2 hours, cell-free supernatants were harvested, placed in polypropylene tubes and frozen at -20°C until assayed for their PGE₂ content using a commercial radioimmunoassay kit. IC₅₀ is the concentration that inhibits 50% of control activity.

The target of assay [3] is T1, 5-Lipoxygenase. Briefly: 5-Lipoxygenase activity (5-HETE) in 10,000 x g supernatant of RBL-1 cells. It is filed as biochemical. The following applies: text b252; RBL-1 cell extracts; read-out: IC₅₀ 5-HETE synthesis.
Method: Harvested cells were washed with 50 mM sodium phosphate buffer, pH 7.0, containing 1 mM EDTA and 0.1% gelatin, resuspended in fresh buffer (5 x 10⁷ cells/ml) and disrupted by nitrogen cavitation using the Parr bomb at 750 psi for 10 min. The broken cell extract was then centrifuged at 10,000 x g for 20 minutes and the supernatant centrifuged at 100,000 x g for 60 minutes. Aliquots (0.25 mls) of the supernatant were preincubated with or without drugs for 10 min, after which 10 ul CaCl₂ (50 mM) was added and the reaction was initiated with 2.5 ul of 2.5 mM arachidonic acid-1-¹⁴C (final concentration was 25 mM; specific activity 20,000 dpm/nmole). After incubation for 3 min at 37°C, the reaction was terminated by addition of 2 volumes (0.5 ml) ice cold acetone and the sample was allowed to deproteinize on ice for 10 min prior to centrifugation at 1,000 x g for 10 min. The deproteinized supernatant was adjusted to pH 3.5 with 2N formic acid and extracted with 2 volumes of ice cold ethyl acetate. […] Arachidonic acid, 5-HETE, di-HETE and PGD₂ were quantified with a Berthold LB 2832 autoscanner.
For assay [4], the system named is Experimental Allergic Encephalomyelitis. Briefly: Experimental allergic encephalomyelitis, hindleg paralysis. It is filed as in vivo, Female Lewis rats. The following applies: 60 Mg/kg/day, p.o. days 0-4, 7-11, 14-18. On the procedure:
EAE is induced in Female (Charles River) Lewis rats by a single intradermal injection of 0.1 ml of an encephalitogenic emulsion consisting of equial parts of a 50% w/v homogenate of guinea pig spinal cord and mid-brain in 0.5% aqueous phenol and Freund's complete adjuvant (4 mg/ml killed, dried M. butyricum) into a hindpaw (left) footpad. […] Any animal which becomes paralyzed during the course of the experiment is considered to have developed EAE whether or not the paralysis is permanent. Test compounds are administered daily beginning on the day of injection, for 19 days, exclusive of days 5, 6 12 and 13. Drug activity is determined by comparing the indicidence of EAE (paralysis) of the treated group with a control (vehicle) group. The level of significant difference between the treated groups and control groups is determined by a Chi-square test using a 2x2 contingency table. Body weight changes from day 0 are also statistically compared to the control group using a Student "t" test.

Each structure is given as a SMILES string. Read-outs that look alike come from different tables or passages of the source. Marks after values point to notes of the source that are not given here.

Take `Fc1ccc(-c2nc3n(c2-c2ccncc2)CCS3)cc1` [Compound 1, 5-(4-pyridyl)-6-(4-fluorophenyl)-2,3-dihydroimidazo[2,1-b]thiazole]: the “5-HETE (nM/ml)” value on 5-Lipoxygenase [1] (1 uM) was found to be 8.86 ± 0.31 nM/ml; at 5-Lipoxygenase [1] (3.3 uM), 7.63 ± 0.44 nM/ml; on 5-Lipoxygenase [1] (10 uM), 5.57 ± 0.35 nM/ml; on 5-Lipoxygenase [1] (33 uM), 3.36 ± 0.07 nM/ml; on 5-Lipoxygenase [1] (100 uM), 1.08 ± 0.13 nM/ml. The inhibition at 1 µM at 5-Lipoxygenase [1] (1 uM, read-out: % Control (5-HETE)) came out at 12.7%. For the same molecule, on 5-Lipoxygenase [1] (3.3 uM, read-out: % Control (5-HETE)), the inhibition at 3.3 µM worked out at 24.9%. Further, the inhibition at 10 µM on 5-Lipoxygenase [1] (10 uM, read-out: % Control (5-HETE)) came to 45.1%. The inhibition at 33 µM at 5-Lipoxygenase [1] (33 uM, read-out: % Control (5-HETE)) amounted to 67.9%. At 5-Lipoxygenase [1] (100 uM, read-out: % Control (5-HETE)), the inhibition at 100 µM came to 89.4%. In addition, the IC50 came to 0.7 µM in assay [2] (Macrophage, read-out: IC₅₀ production of PGE₂ by inflammatory macrophages); 0.7 µM in assay [2] (Peritoneal macrophage, Table 10, LPS-stimulated, C. parvum-elicited peritoneal exudate cells, read-out: IC₅₀ (»M) production of PGE₂); 75 µM at 5-Lipoxygenase [3]. For the same molecule, the “HINDLEG PARALYSIS - CUMULATIVE INCIDENCE DAY 9 TO 13” value in assay [4] is listed as 10/12. For the same molecule, the “HINDLEG PARALYSIS - CUMULATIVE INCIDENCE DAY 14 TO 18” value in assay [4] was 0/11**.
